EC50 data for 29 compounds are collected here from US20240166652A1, “MODULATORS OF THE INTEGRATED STRESS PATHWAY” (Calico Life Sciences LLC, priority 2017, published 2024).

As a reminder, the EC50 is the concentration at which the effect is half-maximal.

For the first assay, the system named is ATF4 luciferase reporter in HEK293T cells. Put plainly: ATF4-Luc assay (ATF4 luciferase reporter, tunicamycin-treated HEK293T cells). Format: cell-based, human. The conditions noted are these: HEK293T cells carrying the ATF4 luciferase reporter, 1 μg/mL tunicamycin, 7 hours. (Reporter assays use an easily measured gene product as a stand-in for the process of interest.)
Consider `O=C(COc1ccc(F)c(F)c1)NC12CCC(NC(=O)COc3ccc(F)c(F)c3)(CC1)[C@@H](O)C2` [Compound 683, N,N′-[(2S)-2-hydroxybicyclo[2.2.2]octane-1,4-diyl]bis[2-(3,4-difluorophenoxy)acetamide]], for which the 50% effective concentration (EC50) is < 10 nM.

The assay is the same for the next values; noted with them: Homo sapiens, HEK-293T; HEK293T cells carrying the ATF4 luciferase reporter, 1 μg/mL tunicamycin, 7 hours.
As to `O=C(COc1ccc(Cl)c(F)c1)NC12CC(NC(=O)C3(c4ccc(Cl)cc4)CC3)(C1)C2` [Compound 668, N-{3-[2-(4-chloro-3-fluorophenoxy)acetamido]bicyclo[1.1.1]pentan-1-yl}-1-(4-chlorophenyl)cyclopropane-1-carboxamide], the EC50 is > 2000 nM.

Consider `O=C(O)/C=C1\CC2(NC(=O)COc3ccc(Cl)c(F)c3)CCC1(NC(=O)COc1ccc(Cl)c(F)c1)CC2` [Compound 669, (2E)-{1,4-bis[2-(4-chloro-3-fluorophenoxy)acetamido]bicyclo[2.2.2]octan-2-ylidene}acetic Acid], for which the EC50 lay in the range of 50 to 250 nM.

As for `O=C(COc1ccc(Cl)c(F)c1)NC12CCC(O)C(NC(=O)COc3ccc(Cl)c(F)c3)(CC1)C2` (centres unmarked) [Compound 670, N,N′-(2-hydroxybicyclo[3.2.1]octane-1,5-diyl)bis[2-(4-chloro-3-fluorophenoxy)acetamide]], the EC50 was 500 to 2000 nM.

Take `O=C(COc1ccc(Cl)c(F)c1)NC12CCC(=O)C(NC(=O)COc3ccc(Cl)c(F)c3)(CC1)C2` (centres unmarked) [Compound 671, N,N′-(2-oxobicyclo[3.2.1]octane-1,5-diyl)bis[2-(4-chloro-3-fluorophenoxy)acetamide]]: the EC50 is 500 to 2000 nM.

As for `CCOC(=O)/C=C1\CC2(NC(=O)COc3ccc(Cl)c(F)c3)CCC1(NC(=O)COc1ccc(Cl)c(F)c1)CC2` [Compound 672, ethyl (2E)-{1,4-bis[2-(4-chloro-3-fluorophenoxy)acetamido]bicyclo[2.2.2]octan-2-ylidene}acetate], the EC50 was 10 to 50 nM.

Regarding `Cc1cc2nc(CNC34CCC(NC(=O)COc5ccc(C(F)(F)F)c(F)c5)(CC3)[C@@H](O)C4)[nH]c2cc1C` [Compound 673, N-[(2S)-4-{[(5,6-dimethyl-1H-benzimidazol-2-yl)methyl]amino}-2-hydroxybicyclo[2.2.2]octan-1-yl]-2-[3-fluoro-4-(trifluoromethyl)phenoxy]acetamide], the EC50 lay within 50 to 250 nM.

Consider `COc1cncc(OCC(=O)NC23CCC(NC(=O)COc4ccc(Cl)c(F)c4)(CC2)[C@@H](O)C3)c1` [Compound 675, 2-(4-chloro-3-fluorophenoxy)-N-[(2S)-2-hydroxy-4-{2-[(5-methoxypyridin-3-yl)oxy]acetamido}bicyclo[2.2.2]octan-1-yl]acetamide], for which the EC50 lay in the range of 10 to 50 nM.

Take `COCCN1C(=O)C2(NC(=O)COc3ccc(Cl)c(F)c3)CCC1(NC(=O)COc1ccc(Cl)c(F)c1)CC2` [Compound 676, N,N′-[2-(2-methoxyethyl)-3-oxo-2-azabicyclo[2.2.2]octane-1,4-diyl]bis[2-(4-chloro-3-fluorophenoxy)acetamide]]: the half-maximal effective concentration (EC50) was 250 to 500 nM.

Consider `CCCN1C(=O)C2(NC(=O)COc3ccc(Cl)c(F)c3)CCC1(NC(=O)COc1ccc(Cl)c(F)c1)CC2` [Compound 677, N,N′-(3-oxo-2-propyl-2-azabicyclo[2.2.2]octane-1,4-diyl)bis[2-(4-chloro-3-fluorophenoxy)acetamide]], for which the EC50 lay in the range of 500 to 2000 nM.

As for `O=C(COc1ccc(Cl)c(F)c1)NC12CCC(NC(=O)COc3ccc(Cl)c(F)c3)(CC1)N(CCO)C2=O` [Compound 679, N,N′-[2-(2-hydroxyethyl)-3-oxo-2-azabicyclo[2.2.2]octane-1,4-diyl]bis[2-(4-chloro-3-fluorophenoxy)acetamide]], the EC50 lay in the range of 50 to 250 nM.

As for `O=C(COc1ccc(F)c(F)c1)NC12CCC(NC(=O)COc3ccc(Cl)c(Cl)c3)(CC1)C(=O)N2` [Compound 680, 2-(3,4-dichlorophenoxy)-N-{1-[2-(3,4-difluorophenoxy)acetamido]-3-oxo-2-azabicyclo[2.2.2]octan-4-yl}acetamide], the EC50 was < 10 nM.

Regarding `O=C(O)CN(CC(=O)NC12CC(NC(=O)COc3ccc(Cl)c(F)c3)(C1)C2)c1ccc(Cl)cc1` [Compound 684, {[2-({3-[2-(4-chloro-3-fluorophenoxy)acetamido]bicyclo[1.1.1]pentan-1-yl}amino)-2-oxoethyl](4-chlorophenyl)amino}acetic Acid], the EC50 is > 2000 nM.

With `CC(C)(C)OC(=O)CN(CC(=O)NC12CC(NC(=O)COc3ccc(Cl)c(F)c3)(C1)C2)c1ccc(Cl)cc1` [Compound 685, tert-butyl {[2-({3-[2-(4-chloro-3-fluorophenoxy)acetamido]bicyclo[1.1.1]pentan-1-yl}amino)-2-oxoethyl](4-chlorophenyl)amino}acetate], the concentration for a half-maximal effect (EC50) is > 2000 nM.

`O=C(O)CN(CCOc1ccc(Cl)c(F)c1)C12CC(NC(=O)COc3ccc(Cl)c(F)c3)(C1)C2` [Compound 686, ({3-[2-(4-chloro-3-fluorophenoxy)acetamido]bicyclo[1.1.1]pentan-1-yl}[2-(4-chloro-3-fluorophenoxy)ethyl]amino)acetic Acid]: the EC50 lay within 500 to 2000 nM.

Take `O=C(O)CN(CCCOc1ccc(Cl)c(F)c1)C12CC(NC(=O)COc3ccc(Cl)c(F)c3)(C1)C2` [Compound 687, ({3-[2-(4-chloro-3-fluorophenoxy)acetamido]bicyclo[1.1.1]pentan-1-yl}[3-(4-chloro-3-fluorophenoxy)propyl]amino)acetic Acid]: the EC50 lay within 500 to 2000 nM.

In the case of `CC(C)(C)OC(=O)CN(CCOc1ccc(Cl)c(F)c1)C12CC(NC(=O)COc3ccc(Cl)c(F)c3)(C1)C2` [Compound 688, tert-butyl ({3-[2-(4-chloro-3-fluorophenoxy)acetamido]bicyclo[1.1.1]pentan-1-yl}[2-(4-chloro-3-fluorophenoxy)ethyl]amino)acetate], the EC50 lay within 50 to 250 nM.

In the case of `O=C(COc1ccc2c(c1)OC(F)(F)C(F)(F)O2)NC12CCC(NC(=O)COc3ccc(Cl)c(F)c3)(CC1)C(=O)N2` [Compound 689, 2-(4-chloro-3-fluorophenoxy)-N-(3-oxo-1-{2-[(2,2,3,3-tetrafluoro-2,3-dihydro-1,4-benzodioxin-6-yl)oxy]acetamido}-2-azabicyclo[2.2.2]octan-4-yl)acetamide], the EC50 was 50 to 250 nM.

Take `COc1ncc(OCC(=O)NC23CCC(NC(=O)COc4ccc(Cl)c(F)c4)(CC2)C(=O)N3)cn1` [Compound 690, 2-(4-chloro-3-fluorophenoxy)-N-(1-{2-[(2-methoxypyrimidin-5-yl)oxy]acetamido}-3-oxo-2-azabicyclo[2.2.2]octan-4-yl)acetamide]: the EC50 was in the range of 250 to 500 nM.

As for `O=C(COn1nnc2cccnc21)NC12CCC(NC(=O)COc3ccc(Cl)c(F)c3)(CC1)C(=O)N2` [Compound 691, 2-(4-chloro-3-fluorophenoxy)-N-(3-oxo-1-{2-[(3H-[1,2,3]-triazolo[4,5-b]pyridin-3-yl)oxy]acetamido}-2-azabicyclo[2.2.2]octan-4-yl)acetamide], the EC50 was > 2000 nM.

As to `O=C(COc1ccc(Cl)c(F)c1)NC12CC(N(CCO)CCCOc3ccc(Cl)c(F)c3)(C1)C2` [Compound 692, 2-(4-chloro-3-fluorophenoxy)-N-(3-{[3-(4-chloro-3-fluorophenoxy)propyl](2-hydroxyethyl)amino}bicyclo[1.1.1]pentan-1-yl)acetamide], the EC50 was in the range of 250 to 500 nM.

Take `CN1Cc2ccc(OCC(=O)NC34CCC(NC(=O)COc5ccc(Cl)c(F)c5)(CC3)[C@@H](O)C4)cc2C1=O` [Compound 695, 2-(4-chloro-3-fluorophenoxy)-N-[(2S)-2-hydroxy-4-{2-[(2-methyl-3-oxo-2,3-dihydro-1H-isoindol-5-yl)oxy]acetamido}bicyclo[2.2.2]octan-1-yl]acetamide]: the EC50 was 500 to 2000 nM.

`CN(CCCOc1ccc(Cl)cc1)C12CCC(NC(=O)COc3ccc(Cl)c(F)c3)(CC1)[C@@H](O)C2` [Compound 696, 2-(4-chloro-3-fluorophenoxy)-N-[(2S)-4-{[3-(4-chlorophenoxy)propyl](methyl)amino}-2-hydroxybicyclo[2.2.2]octan-1-yl]acetamide]: the EC50 is 10 to 50 nM.

As to `CN(CCC(=O)O)C1CC2(NC(=O)COc3ccc(Cl)c(F)c3)CCC1(NC(=O)COc1ccc(Cl)c(F)c1)CC2` (centres unmarked) [Compound 698, 3-[{1,4-bis[2-(4-chloro-3-fluorophenoxy)acetamido]bicyclo[2.2.2]octan-2-yl}(methyl)amino]propanoic Acid], the EC50 lay in the range of 250 to 500 nM.

On to `N#CC(COc1ccc(Cl)cc1)NC12CCC(NC(=O)COc3ccc(Cl)c(F)c3)(CC1)[C@@H](O)C2` (stereo partly drawn) [Compound 699, 2-(4-chloro-3-fluorophenoxy)-N-[(2S)-4-{[2-(4-chlorophenoxy)-1-cyanoethyl]amino}-2-hydroxybicyclo[2.2.2]octan-1-yl]acetamide], for which the EC50 was 10 to 50 nM.

On to `CN(CC(=O)O)C1CC2(NC(=O)COc3ccc(Cl)c(F)c3)CCC1(NC(=O)COc1ccc(Cl)c(F)c1)CC2` (centres unmarked) [Compound 700, [{1,4-bis[2-(4-chloro-3-fluorophenoxy)acetamido]bicyclo[2.2.2]octan-2-yl}(methyl)amino]acetic Acid], for which the EC50 is 250 to 500 nM.

Regarding `O=C(COc1ccc(Cl)c(F)c1)NC12CCC(NC(=O)COc3ccc(Cl)c(F)c3)(CC1)C(NC1(CO)COC1)C2` (centres unmarked) [Compound 701, N,N′-(2-{[3-(hydroxymethyl)oxetan-3-yl]amino}bicyclo[2.2.2]octane-1,4-diyl)bis[2-(4-chloro-3-fluorophenoxy)acetamide]], the concentration giving a half-maximal response (EC50) is 10 to 50 nM.

Consider `O=C(COc1ccc2c(c1)OC(F)(F)C(F)(F)O2)NC12CCC(NC(=O)COc3ccc(Cl)c(F)c3)(CC1)[C@@H](O)C2` [Compound 702, 2-(4-chloro-3-fluorophenoxy)-N-[(2S)-2-hydroxy-4-{2-[(2,2,3,3-tetrafluoro-2,3-dihydro-1,4-benzodioxin-6-yl)oxy]acetamido}bicyclo[2.2.2]octan-1-yl]acetamide], for which the EC50 is < 10 nM.

For `O=C(COc1ccc(Cl)c(F)c1)NC12CCC(NCCCOc3ccc(Cl)c(F)c3)(CC1)[C@@H](O)C2` [Compound 703, 2-(4-chloro-3-fluorophenoxy)-N-[(3S)-4-{[3-(4-chloro-3-fluorophenoxy)propyl]amino}-3-hydroxybicyclo[2.2.2]octan-1-yl]acetamide], the concentration for a half-maximal effect (EC50) was < 10 nM.
